Assays:
GPR17 [1] = biological target: T1, GPR17 (Homo sapiens, UniProt Q13304); test: cAMP accumulation functional assay (HTRF, Schild analysis); assay type: cell-based; parameters: host or cells: Flp-In T-REx CHO; settings: CHO hGPR17 cells, Schild analysis vs MDL29,951, 5 μM forskolin, read-out: cAMP assay pA2 (converted)
In short: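 Antagonist affinity (pA2) came from Schild plots of dose ratios, based on MDL29,951 concentration-response curves fitted by 4-parameter logistic. The read-out was HTRF cAMP in 5,000 doxycycline-induced CHO hGPR17 cells per well, with 30 min compound preincubation and 60 min stimulation, at room temperature in pH 7.4 buffer.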

GPR17 [2] = biological target: T1, GPR17; test: Calcium mobilization functional assay (GPR17 Ca2+ assay); assay type: cell-based; parameters: host or cells: Flp-In T-REx CHO; settings: CHO hGPR17 cells, inhibition of 50 nM MDL29,951, Calcium 5 dye, FLIPR; read-out: Ca2+ assay pIC50 (converted)
In short: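 pIC50 values were fitted with a 4-parameter logistic curve. They reflect test-compound inhibition of cytosolic Ca2+ release evoked by 50 nM MDL29,951, tracked as Calcium 5 fluorescence at room temperature. Cells were CHO Flp-In T-REx stably carrying human GPR17, induced with doxycycline 1 μg/mL for 16-20 h.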

T1 sequence (Q13304 whole entry): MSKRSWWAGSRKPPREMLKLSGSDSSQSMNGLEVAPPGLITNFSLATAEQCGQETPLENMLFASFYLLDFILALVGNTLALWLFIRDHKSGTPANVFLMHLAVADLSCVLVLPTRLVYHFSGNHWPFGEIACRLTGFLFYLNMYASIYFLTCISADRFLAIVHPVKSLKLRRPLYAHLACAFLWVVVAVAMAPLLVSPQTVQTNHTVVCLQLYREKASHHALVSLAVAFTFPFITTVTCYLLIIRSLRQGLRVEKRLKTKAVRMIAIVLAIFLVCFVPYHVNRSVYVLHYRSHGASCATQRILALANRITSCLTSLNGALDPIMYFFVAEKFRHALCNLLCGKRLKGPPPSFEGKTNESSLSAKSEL

SMILES | Kb (GPR17 [1]) [nM] | IC50 (GPR17 [2]) [nM]
COc1nc(NS(=O)(=O)c2c[nH]c3c(Br)c(Cl)ccc23)c(F)cc1Cl [Compound I-321, 7-bromo-6-chloro-N-(5-chloro-3-fluoro-6-methoxypyridin-2-yl)-1H-indole-3-sulfonamide] | < 3.16 | < 3.16
COc1nc(NS(=O)(=O)c2c[nH]c3cc(Cl)c(Br)cc23)c(F)cc1CC#N [Compound I-324, 5-bromo-6-chloro-N-[5-(cyanomethyl)-3-fluoro-6-methoxypyridin-2-yl]-1H-indole-3-sulfonamide] | < 3.16 | < 3.16
COc1nc(NS(=O)(=O)c2c[nH]c3c2ccc2cccnc23)c(F)cc1Cl [Compound I-328, N-(5-chloro-3-fluoro-6-methoxypyridin-2-yl)-1H-pyrrolo[3,2-h]quinoline-3-sulfonamide] | < 3.16 | < 3.16
COc1nc(NS(=O)(=O)c2c[nH]c3c2ccc2ccccc23)c(F)cc1Cl [Compound I-329, N-(5-chloro-3-fluoro-6-methoxypyridin-2-yl)-1H-benzo[g]indole-3-sulfonamide] | < 3.16 | < 3.16
N#Cc1ccc(NS(=O)(=O)c2c[nH]c3cc(N=[N+]=[N-])ccc23)c(F)c1 [Compound I-335, 6-azido-N-(4-cyano-2-fluorophenyl)-1H-indole-3-sulfonamide] | 3.16 to 31.6 | 3.16 to 31.6
COc1nc(NS(=O)(=O)c2c[nH]c3nc(Cl)ccc23)c(F)cc1Cl [Compound I-336, 6-chloro-N-(5-chloro-3-fluoro-6-methoxypyridin-2-yl)-1H-pyrrolo[2,3-b]pyridine-3-sulfonamide] | 3.16 to 31.6 | < 3.16
COc1nc(NS(=O)(=O)c2c[nH]c3c(F)c(Cl)c(F)cc23)c(F)cc1Cl [Compound I-340, 6-chloro-N-(5-chloro-3-fluoro-6-methoxypyridin-2-yl)-5,7-difluoro-1H-indole-3-sulfonamide] | 3.16 to 31.6 | 3.16 to 31.6
N#Cc1ccc(NS(=O)(=O)c2c[nH]c3c(Br)c(Cl)ccc23)c(F)c1 [Compound I-341, 7-bromo-6-chloro-N-(4-cyano-2-fluorophenyl)-1H-indole-3-sulfonamide] | < 3.16 | < 3.16
N#CCOc1cc(F)c(NS(=O)(=O)c2coc3cc(Cl)ccc23)cc1F [Compound I-342, 6-chloro-N-[4-(cyanomethoxy)-2,5-difluorophenyl]-1-benzofuran-3-sulfonamide] | 3.16 to 31.6 | 3.16 to 31.6
N#Cc1ccc(NS(=O)(=O)c2c[nH]c3cc(Cl)c(Br)cc23)c(F)c1 [Compound I-343, 5-bromo-6-chloro-N-(4-cyano-2-fluorophenyl)-1H-indole-3-sulfonamide] | < 3.16 | 3.16 to 31.6
COc1nc(NS(=O)(=O)c2coc3cc(Cl)ccc23)c(F)cc1Cl [Compound I-346, 6-chloro-N-(5-chloro-3-fluoro-6-methoxypyridin-2-yl)-1-benzofuran-3-sulfonamide] | 3.16 to 31.6 | 3.16 to 31.6
O=S(=O)(Nc1cc(F)c(Cl)cc1F)c1c[nH]c2c(Cl)c(Br)ccc12 [Compound I-347, 6-bromo-7-chloro-N-(4-chloro-2,5-difluorophenyl)-1H-indole-3-sulfonamide] | < 3.16 | 3.16 to 31.6
COc1nc(NS(=O)(=O)c2c[nH]c3cc(N=[N+]=[N-])ccc23)c(F)cc1CC#N [Compound I-353, 6-azido-N-[5-(cyanomethyl)-3-fluoro-6-methoxypyridin-2-yl]-1H-indole-3-sulfonamide] | < 3.16 | < 3.16
COc1nc(NS(=O)(=O)c2c[nH]c3c(F)c(Cl)ccc23)c(F)cc1CC#N [Compound I-354, 6-chloro-N-[5-(cyanomethyl)-3-fluoro-6-methoxypyridin-2-yl]-7-fluoro-1H-indole-3-sulfonamide] | < 3.16 | < 3.16
Cc1cc(F)c(NS(=O)(=O)c2c[nH]c3c(F)c(Cl)ccc23)nc1F [Compound I-355, 6-chloro-N-(3,6-difluoro-5-methylpyridin-2-yl)-7-fluoro-1H-indole-3-sulfonamide] | 3.16 to 31.6 | < 3.16

More lines, now with the values ahead:

Kb (GPR17 [1]) [nM] | IC50 (GPR17 [2]) [nM] | SMILES
< 3.16 | < 3.16 | COCCCc1cc(F)c(NS(=O)(=O)c2c[nH]c3cc(Br)ccc23)nc1F [Compound I-323, 6-bromo-N-[3,6-difluoro-5-(3-methoxypropyl)pyridin-2-yl]-1H-indole-3-sulfonamide]
< 3.16 | < 3.16 | COC/C=C/c1cc(F)c(NS(=O)(=O)c2c[nH]c3cc(Br)ccc23)nc1F [Compound I-325, 6-bromo-N-{3,6-difluoro-5-[(1E)-3-methoxyprop-1-en-1-yl]pyridin-2-yl}-1H-indole-3-sulfonamide]
< 3.16 | 3.16 to 31.6 | Cc1c(Br)ccc2c(S(=O)(=O)Nc3ncc(Cl)cc3F)c[nH]c12 [Compound I-326, 6-bromo-N-(5-chloro-3-fluoropyridin-2-yl)-7-methyl-1H-indole-3-sulfonamide]
< 3.16 | < 3.16 | CC1OC(=O)c2cc(NS(=O)(=O)c3c[nH]c4cc(Cl)ccc34)c(F)cc21 (centres unmarked) [Compound I-327, 6-chloro-N-(6-fluoro-1-methyl-3-oxo-1,3-dihydro-2-benzofuran-5-yl)-1H-indole-3-sulfonamide]
< 3.16 | 3.16 to 31.6 | CCOC(=O)/C=C/c1cc(F)c(NS(=O)(=O)c2c[nH]c3cc(Cl)ccc23)nc1F [Compound I-330, Ethyl (2E)-3-(6-{[(6-chloro-1H-indol-3-yl)sulfonyl]amino}-2,5-difluoropyridin-3-yl)prop-2-enoate]
< 3.16 | < 3.16 | CCOC(=O)CCc1cc(F)c(NS(=O)(=O)c2c[nH]c3cc(Cl)ccc23)nc1F [Compound I-331, ethyl 3-(6-{[(6-chloro-1H-indol-3-yl)sulfonyl]amino}-2,5-difluoropyridin-3-yl)propanoate]
< 3.16 | 3.16 to 31.6 | CCO/C=C/c1cc(F)c(NS(=O)(=O)c2c[nH]c3cc(Cl)ccc23)nc1F [Compound I-332, 6-chloro-N-{5-[(E)-2-ethoxyethenyl]-3,6-difluoropyridin-2-yl}-1H-indole-3-sulfonamide]
< 3.16 | < 3.16 | CCOCCc1cc(F)c(NS(=O)(=O)c2c[nH]c3cc(Cl)ccc23)nc1F [Compound I-333, 6-chloro-N-[5-(2-ethoxyethyl)-3,6-difluoropyridin-2-yl]-1H-indole-3-sulfonamide]
< 3.16 | 3.16 to 31.6 | C=Cc1cc(F)c(NS(=O)(=O)c2c[nH]c3cc(Cl)ccc23)nc1F [Compound I-337, 6-chloro-N-(5-ethenyl-3,6-difluoropyridin-2-yl)-1H-indole-3-sulfonamide]
< 3.16 | < 3.16 | CCc1cc(F)c(NS(=O)(=O)c2c[nH]c3cc(Cl)ccc23)nc1F [Compound I-338, 6-chloro-N-(5-ethyl-3,6-difluoropyridin-2-yl)-1H-indole-3-sulfonamide]
3.16 to 31.6 | < 3.16 | COc1nc(NS(=O)(=O)c2c[nH]c3cc(Cl)c(F)cc23)c(F)cc1Cl [Compound I-339, 6-chloro-N-(5-chloro-3-fluoro-6-methoxypyridin-2-yl)-5-fluoro-1H-indole-3-sulfonamide]
3.16 to 31.6 | 3.16 to 31.6 | COc1cc(C(F)(F)F)cnc1NS(=O)(=O)c1c[nH]c2cc(Cl)ccc12 [Compound I-344, 6-chloro-N-[3-methoxy-5-(trifluoromethyl)pyridin-2-yl]-1H-indole-3-sulfonamide]
3.16 to 31.6 | 3.16 to 31.6 | COc1nc(NS(=O)(=O)c2c[nH]c3cc(Cl)ccc23)c(F)cc1F [Compound I-345, 6-chloro-N-(3,5-difluoro-6-methoxypyridin-2-yl)-1H-indole-3-sulfonamide]
3.16 to 31.6 | < 3.16 | Cc1cc(F)c(NS(=O)(=O)c2c[nH]c3cc(Cl)ccc23)nc1F [Compound I-348, 6-chloro-N-(3,6-difluoro-5-methylpyridin-2-yl)-1H-indole-3-sulfonamide]
< 3.16 | < 3.16 | COc1cc(Br)c(F)nc1NS(=O)(=O)c1c[nH]c2cc(Cl)ccc12 [Compound I-349, N-(5-bromo-6-fluoro-3-methoxypyridin-2-yl)-6-chloro-1H-indole-3-sulfonamide]
< 3.16 | < 3.16 | COc1cc(CC#N)c(F)nc1NS(=O)(=O)c1c[nH]c2cc(Cl)ccc12 [Compound I-350, 6-chloro-N-[5-(cyanomethyl)-6-fluoro-3-methoxypyridin-2-yl]-1H-indole-3-sulfonamide]
3.16 to 31.6 | 3.16 to 31.6 | COc1nc(NS(=O)(=O)c2c[nH]c3cc([N+](=O)[O-])ccc23)c(F)cc1CC#N [Compound I-351, N-[5-(cyanomethyl)-3-fluoro-6-methoxypyridin-2-yl]-6-nitro-1H-indole-3-sulfonamide]
3.16 to 31.6 | 3.16 to 31.6 | COc1nc(NS(=O)(=O)c2c[nH]c3cc(N)ccc23)c(F)cc1CC#N [Compound I-352, 6-amino-N-[5-(cyanomethyl)-3-fluoro-6-methoxypyridin-2-yl]-1H-indole-3-sulfonamide]
3.16 to 31.6 | 3.16 to 31.6 | COc1ccc2c(S(=O)(=O)Nc3nc(OC)c(Cl)cc3F)c[nH]c2c1Cl [Compound I-356, 7-chloro-N-(5-chloro-3-fluoro-6-methoxypyridin-2-yl)-6-methoxy-1H-indole-3-sulfonamide]

From US12071404B2, “Aza (indole)-, benzothiophene-, and benzofuran-3-sulfonamides” (UCB Pharma GmbH, priority 2016, dated 2024)
